Measured values as given in the supplement of paper PMC10307832.

Experiments:
Assay in all cases: relative viability (nuclei count vs DMSO), 5 days (fraction); higher = more cells survive
[1] = compound: O=C(O)C(Cc1ccccc1[N+](=O)[O-])=NNc1nc(-c2ccc(Cl)c(Cl)c2)cs1 (mixture of isomers) [4EGI-1] + CC(=O)c1c(C)c2cnc(Nc3ccc(N4CCNCC4)cn3)nc2n(C2CCCC2)c1=O [Palbociclib] (partner 0.5 µM)
Method in brief: (§1)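 Lung cancer cell lines in 1536-well plates were dosed by pin tool the day after seeding, either with one drug alone or with a fixed anchor-drug dose plus five library-drug doses (not always all listed) in √10 steps. After 5 days, cells were fixed and their nuclei stained in one step (final 0.05% Triton X-100, 1% formaldehyde, 1 ug/ml Hoechst), then counted on 4× images. Relative viability is the nuclei count in treated wells divided by that in vehicle wells. Values are medians of duplicate plates.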

[2] = compound: CN1CCN(CC1)C2=CC(=C(C=C2)NC3=NC=C4C(=N3)N(C5=CC=CC=C5C(=O)N4C)C)OC [XMD8-85] + Cc1cc(Nc2cc(N3CCN(C)CC3)nc(Sc3ccc(NC(=O)C4CC4)cc3)n2)n[nH]1 [Tozasertib] (partner 0.1 µM)
Method in brief: as §1

[3] = compound: O=C(O)C(Cc1ccccc1[N+](=O)[O-])=NNc1nc(-c2ccc(Cl)c(Cl)c2)cs1 (mixture of isomers) [4EGI-1] + C[C@]1(O)C[C@@H](c2nc(-c3ccc4ccc(-c5ccccc5)nc4c3)c3c(N)nccn32)C1 [Linsitinib] (partner 1 µM)
Method in brief: as §1

[4] = compound: O=C(O)C(Cc1ccccc1[N+](=O)[O-])=NNc1nc(-c2ccc(Cl)c(Cl)c2)cs1 (mixture of isomers) [4EGI-1] + CC1(C)CCC(c2ccc(Cl)cc2)=C(CN2CCN(c3ccc(C(=O)NS(=O)(=O)c4ccc(N[C@H](CCN5CCOCC5)CSc5ccccc5)c(S(=O)(=O)C(F)(F)F)c4)cc3)CC2)C1 [Navitoclax] (partner 0.5 µM)
Method in brief: as §1

| Cell Line | relative viability ([1]; first compound 0.5 µM) | relative viability ([1]; first compound 5 µM) | relative viability ([1]; first compound 15.81 µM) | relative viability ([1]; first compound 50 µM) | relative viability ([2]; first compound 0.08 µM) | relative viability ([2]; first compound 0.253 µM) | relative viability ([2]; first compound 0.8 µM) | relative viability ([2]; first compound 2.53 µM) | relative viability ([2]; first compound 8 µM) | relative viability ([3]; first compound 0.5 µM) | relative viability ([3]; first compound 1.581 µM) | relative viability ([3]; first compound 5 µM) | relative viability ([3]; first compound 50 µM) | relative viability ([4]; first compound 0.5 µM) | relative viability ([4]; first compound 1.581 µM) | relative viability ([4]; first compound 5 µM) | relative viability ([4]; first compound 50 µM) | relative viability ([1]; first compound 1.581 µM) | relative viability ([3]; first compound 15.81 µM) | relative viability ([4]; first compound 15.81 µM) |
| --- | --- | --- | --- | --- | --- | --- | --- | --- | --- | --- | --- | --- | --- | --- | --- | --- | --- | --- | --- | --- |
| PC-3 [JPC-3] | 0.472 | 0.573 | 0.472 | 0.458 | 0.723 | 0.848 | 0.974 | 1 | 0.625 | 0.96 | 0.862 | 0.96 | 0.889 | 0.82 | 0.753 | 0.765 | 0.612 |  |  |  |
| PC-14 | 0.559 | 0.659 | 0.188 | 0.0675 | 0.556 | 0.529 | 0.541 | 0.463 | 0.397 | 1.01 | 0.741 | 0.983 | 0.94 | 1.09 |  | 0.985 | 0.981 |  |  |  |
| RERF-LC-KJ | 1.09 | 0.953 | 0.882 | 0.625 | 0.552 | 0.465 | 0.473 | 0.409 | 0.295 | 0.966 | 0.706 | 0.868 | 0.843 | 0.902 |  | 0.858 | 0.706 | 0.481 | 0.815 | 0.632 |
| SK-LU-1 | 0.439 | 0.414 | 0.386 | 0.289 | 0.278 | 0.328 | 0.276 | 0.294 | 0.185 | 1.31 | 1.35 | 1.46 | 0.283 | 0.792 | 1.09 | 0.974 | 0.161 | 0.44 | 1.14 | 0.548 |
| SK-MES-1 | 0.354 | 0.336 | 0.288 | 0.18 | 0.998 | 0.939 |  | 0.81 | 0.276 | 1.12 | 1.07 | 1.1 | 0.987 | 1.18 | 1.27 | 1.19 | 0.949 | 0.27 | 0.887 | 1.01 |
| SW 1573 | 0.417 | 0.47 | 0.257 | 0.119 | 0.222 | 0.197 | 0.175 | 0.174 | 0.156 | 1 | 0.669 | 0.917 | 0.961 | 1.26 | 0.927 | 0.947 | 0.674 | 0.354 | 0.741 | 0.843 |
| UMC-11 | 0.345 | 0.378 | 0.365 | 0.305 | 0.251 | 0.209 | 0.233 | 0.248 | 0.197 | 1.06 | 1.18 | 1.02 | 0.399 | 0.392 | 0.345 | 0.367 | 0.216 | 0.34 | 0.987 | 0.301 |
